The results in this text go back to US20260364184A1, “COMPOUND BASED ON OXOISOINDOLINYL-SUBSTITUTED TETRAHYDROPYRIMIDINE-DIONE AND USE THEREOF” (GLUETACS THERAPEUTICS (SHANGHAI) CO., LTD., priority 2023, published 2026).

Assay [1] relates to Human gastric cancer cell line MGC803. Put plainly: Inhibition of MGC803 tumor cell proliferation (CellTiter luminescent viability). The assay is classed as cell-based. As to conditions: Table IA1, IRAK4 inhibitor-based compounds; MGC803, 96 hours; read-out: Inhibitory activity (IC50, nM) on tumor cell proliferation, MGC803. The protocol:
(§1) The tumor cells used herein were cultured in a cell culture medium listed in table 3 at 37 °C in an incubator with 5% CO2. Prior to experimentation, all cell lines used were correctly identified by STR profiling, and tested negative for mycoplasma contamination using a mycoplasma detection kit through routine screenings.
(§2) The IC50 values of the compounds of the present disclosure (including the compounds in Table 1, Table 2, and Examples 1-468) were determined using the CellTiter-Meiluncell Luminescent Cell Viability Assay Kit from Dalian Meilun Biotech Co., Ltd. The detailed procedure is as follows: Tumor cells were seeded in 96-well cell culture plates at the densities specified in Table 4. On the following day, the test compounds of the present disclosure were subjected to serial dilution. The dilution can be performed according to one of the following two methods: • (1) The first dilution method: The test compounds of the present disclosure (including the compounds in Table 1, Table 2, and Examples 1-468) were subjected to 5-fold serial dilutions starting from a highest concentration of 2000 μM, resulting in a total of 9 concentrations from high to low (2000, 400, 80, 16, 3.2, 0.64, 0.128, 0.0256, 0.00512 μM). Subsequently, 0.5 μL of the test compound dilution was transferred into the 96-well plate containing the cells, with each well containing 100 μL of cell culture medium. […] Into the 96-well plate, the diluted test compounds and corresponding detection reagents were added, resulting in final test compound concentrations of 500 nM and 10 nM, respectively. The experimental procedure is described below using the diluted 2 μM test compound as an example.
(§3) 0.5 μL of the aforementioned diluted compound of the present disclosure (including the compounds in Table 1, Table 2, and Examples 1-468) was added to the seeded cells in 100 μL of medium, yielding a final test compound concentration of 10 nM. After the cells were treated with the compounds of the present disclosure for a specified period, the cell viability assay reagent was added to the culture medium according to the kit's instructions to determine cell viability. […] All controls were treated using the same procedure as the compounds of the present disclosure. The growth inhibition curves for the compounds of the present disclosure were plotted using Prism GraphPad software, and the IC50 values were calculated therefrom.

Assay [2] deals with Human T lymphocytic leukemia cell line (Jurkat). Briefly: Inhibition of Jurkat cell proliferation (CellTiter luminescent viability). As to conditions: Table IA1, IRAK4 inhibitor-based, 96 hours, read-out: Inhibitory activity (IC50, nM) on tumor cell proliferation, Jurkat. The assay is classed as cell-based.
In another assay the test system is JEKO-1. Put plainly: Inhibition of JEKO-1 cell proliferation (CellTiter luminescent viability). The assay is classed as cell-based, human. As to conditions: Table IA1, IRAK4 inhibitor-based; JEKO-1, 96 hours; read-out: Inhibitory activity (IC50, nM) on tumor cell proliferation, JEKO-1. The protocol: as §1, §2, §3
Assay [3] deals with Human large cell immunoblastic lymphoma cell line SR. Put plainly: Inhibition of SR cell proliferation (CellTiter luminescent viability). The assay is classed as cell-based. As to conditions: Table IA1, IRAK4 inhibitor-based, 96 hours, read-out: Inhibitory activity (IC50, nM) on tumor cell proliferation, SR. An outline of the steps:
(§4)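 Cells are seeded in 96-well plates, cultured at 37 °C, 5% CO2, and treated next day with 5-fold serial compound dilutions (stock series from 2000 μM; 0.5 μL into 100 μL medium). Viability is read by CellTiter-Meiluncell luminescence after the set exposure, and IC50 is taken from growth-inhibition curves.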

Assay [4] has as its system Human Multiple myeloma cell line (MM.1S). Put plainly: Inhibition of MM.1S cell proliferation (CellTiter luminescent viability). The assay is classed as cell-based. As to conditions: Table IA1, IRAK4 inhibitor-based, 96 hours, read-out: Inhibitory activity (IC50, nM) on tumor cell proliferation, MM.1S. A digest of the protocol: as §4
Assay [5] relates to Human malignant melanoma cell line (A375). Briefly: Inhibition of A375 cell proliferation (CellTiter luminescent viability). As to conditions: A-375, Table III (II1), EZH2 inhibitor-based, 96 hours; for inhibition at 0.01 µM: A375, 10 nM, read-out: Inhibition Rate at 10 nM (%); for inhibition at 0.5 µM: A375, 500 nM, read-out: Inhibition Rate at 500 nM (%). The protocol: as §1, §2, §3

Another assay has as its target T1, EZH2 (Homo sapiens, UniProt Q15910+Q96SW2).
T1 construct: expression of target proteins in cells; endogenous in cells
Briefly: Western blot degradation of EZH2. The assay is classed as cell-based. As to conditions: hPBMC Cell; 24 hours. On the procedure:
Conventional Western blot assay was performed to evaluate the effects of the compounds of the present disclosure on the expression of target proteins in cells.
(1) Cell Seeding and Protein Harvesting: The selected cells were processed according to the cell seeding procedure and protein harvesting procedure in Table II-2.
(2) To the collected supernatant, 5×SDS sample loading buffer was added, followed by denaturation at 95 °C for 5 minutes. The denatured samples were then separated by SDS-PAGE electrophoresis on a polyacrylamide gel. Proteins were transferred to a nitrocellulose membrane (0.45 μm NC membrane), blocked with blocking buffer at room temperature for 1 hour, and subjected to antibody incubation and development procedures according to the antibody manufacturer's instructions (Cell Signaling Technology).
Half-Maximal Degradation Concentration value (the drug concentration required for degrading proteins by 50%, abbreviated as DC50) reads method: comparing the grayscale values of Western blot bands from drug-treated samples with those from blank DMSO-treated controls, and identifying the drug concentration range at which the grayscale value is half that of the DMSO-treated control bands.
DC50 values can be calculated using ImageJ software to measure grayscale values of Western blot bands from drug-treated samples. The concentration-response curve is fitted to estimate the drug concentration corresponding to half the grayscale value.
Target protein remaining (%) refers to the percentage of target protein remaining in cells after treatment with protein degrader compounds.
Calculation method for target protein remaining (%): Use ImageJ software to measure grayscale values of Western blot bands from drug (protein degrader)-treated samples. The grayscale value of drug-treated bands is divided by that of internal control protein bands, and the resulting quotient is normalized to obtain the relative percentage of remaining target protein after protein degrader treatment.
Target protein degradation rate (%)=1−target protein remaining (%).

The subject of assay [6] is Human neuroblastoma cell line (SK-N-AS). Briefly: Inhibition of SK-N-AS cell proliferation (CellTiter luminescent viability). The assay is classed as cell-based. As to conditions: Table II2, EZH2 inhibitor-based, 96 hours; for inhibition at 0.01 µM: 10 nM, read-out: Inhibition Rate at 10 nM (%); for inhibition at 0.5 µM: 500 nM, read-out: Inhibition Rate at 500 nM (%).

T1 sequence (Q15910 whole entry): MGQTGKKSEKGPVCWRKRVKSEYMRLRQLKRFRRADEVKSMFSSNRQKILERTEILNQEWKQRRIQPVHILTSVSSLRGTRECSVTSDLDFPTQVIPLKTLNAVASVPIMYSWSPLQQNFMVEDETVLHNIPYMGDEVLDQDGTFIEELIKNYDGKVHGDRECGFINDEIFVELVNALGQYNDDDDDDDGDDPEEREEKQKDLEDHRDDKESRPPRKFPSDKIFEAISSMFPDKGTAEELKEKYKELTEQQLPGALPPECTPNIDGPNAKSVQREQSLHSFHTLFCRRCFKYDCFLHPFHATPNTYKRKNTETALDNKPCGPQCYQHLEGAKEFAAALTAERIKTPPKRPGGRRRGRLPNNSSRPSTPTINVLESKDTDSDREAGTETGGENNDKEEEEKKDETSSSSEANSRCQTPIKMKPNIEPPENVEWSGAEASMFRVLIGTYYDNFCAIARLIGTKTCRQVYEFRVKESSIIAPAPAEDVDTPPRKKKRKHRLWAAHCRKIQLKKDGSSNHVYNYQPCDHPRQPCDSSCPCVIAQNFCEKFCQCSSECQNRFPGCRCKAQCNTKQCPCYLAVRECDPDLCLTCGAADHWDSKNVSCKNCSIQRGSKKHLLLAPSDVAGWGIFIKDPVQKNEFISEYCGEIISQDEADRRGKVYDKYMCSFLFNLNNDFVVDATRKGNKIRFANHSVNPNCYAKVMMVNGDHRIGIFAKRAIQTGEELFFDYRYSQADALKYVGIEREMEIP
T1 sequence (O75530 whole entry partner): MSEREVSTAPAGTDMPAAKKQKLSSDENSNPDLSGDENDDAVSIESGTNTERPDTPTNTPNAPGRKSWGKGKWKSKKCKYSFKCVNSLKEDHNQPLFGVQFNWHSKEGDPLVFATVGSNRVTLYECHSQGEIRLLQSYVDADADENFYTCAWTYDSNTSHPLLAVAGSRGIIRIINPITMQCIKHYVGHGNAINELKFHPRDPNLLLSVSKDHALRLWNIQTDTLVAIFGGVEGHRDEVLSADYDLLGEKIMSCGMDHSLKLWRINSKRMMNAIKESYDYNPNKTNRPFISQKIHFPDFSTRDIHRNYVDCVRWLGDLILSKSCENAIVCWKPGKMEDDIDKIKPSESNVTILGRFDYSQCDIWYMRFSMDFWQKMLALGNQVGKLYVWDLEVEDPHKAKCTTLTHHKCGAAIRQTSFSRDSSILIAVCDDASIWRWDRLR
T1 sequence (Q15022 whole entry partner): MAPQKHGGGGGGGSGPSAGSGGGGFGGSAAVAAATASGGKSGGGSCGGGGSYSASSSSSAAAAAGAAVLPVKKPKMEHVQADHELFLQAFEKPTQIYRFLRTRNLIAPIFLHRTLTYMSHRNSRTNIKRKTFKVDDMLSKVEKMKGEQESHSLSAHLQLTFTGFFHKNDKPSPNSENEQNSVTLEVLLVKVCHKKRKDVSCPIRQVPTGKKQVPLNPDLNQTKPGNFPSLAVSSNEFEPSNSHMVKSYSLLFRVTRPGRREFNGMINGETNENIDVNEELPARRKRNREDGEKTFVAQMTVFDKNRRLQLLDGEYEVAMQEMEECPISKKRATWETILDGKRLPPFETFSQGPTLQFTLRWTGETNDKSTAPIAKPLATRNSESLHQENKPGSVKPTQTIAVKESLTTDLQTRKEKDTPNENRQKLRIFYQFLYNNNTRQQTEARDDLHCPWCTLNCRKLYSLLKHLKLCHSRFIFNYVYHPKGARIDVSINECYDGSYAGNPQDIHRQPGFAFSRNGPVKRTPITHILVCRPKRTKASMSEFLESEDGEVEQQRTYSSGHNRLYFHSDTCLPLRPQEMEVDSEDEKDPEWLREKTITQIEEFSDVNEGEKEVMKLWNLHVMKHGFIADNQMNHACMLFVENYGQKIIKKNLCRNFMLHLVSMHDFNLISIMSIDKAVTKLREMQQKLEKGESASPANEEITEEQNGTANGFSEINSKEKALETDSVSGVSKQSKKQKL
T1 sequence (Q96SW2 whole entry): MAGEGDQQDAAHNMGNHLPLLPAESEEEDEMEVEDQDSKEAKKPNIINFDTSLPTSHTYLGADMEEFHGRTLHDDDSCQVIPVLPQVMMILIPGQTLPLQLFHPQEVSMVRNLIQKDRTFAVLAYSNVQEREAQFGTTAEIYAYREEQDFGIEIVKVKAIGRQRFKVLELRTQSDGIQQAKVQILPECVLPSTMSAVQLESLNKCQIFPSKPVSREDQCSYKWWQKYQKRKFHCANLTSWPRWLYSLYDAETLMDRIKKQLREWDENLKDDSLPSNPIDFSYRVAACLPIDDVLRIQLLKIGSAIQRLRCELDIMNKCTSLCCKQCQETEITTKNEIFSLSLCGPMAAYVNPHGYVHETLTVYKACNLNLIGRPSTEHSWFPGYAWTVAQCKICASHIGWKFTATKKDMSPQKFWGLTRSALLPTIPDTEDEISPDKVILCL
T1 sequence (Q16531 whole entry partner): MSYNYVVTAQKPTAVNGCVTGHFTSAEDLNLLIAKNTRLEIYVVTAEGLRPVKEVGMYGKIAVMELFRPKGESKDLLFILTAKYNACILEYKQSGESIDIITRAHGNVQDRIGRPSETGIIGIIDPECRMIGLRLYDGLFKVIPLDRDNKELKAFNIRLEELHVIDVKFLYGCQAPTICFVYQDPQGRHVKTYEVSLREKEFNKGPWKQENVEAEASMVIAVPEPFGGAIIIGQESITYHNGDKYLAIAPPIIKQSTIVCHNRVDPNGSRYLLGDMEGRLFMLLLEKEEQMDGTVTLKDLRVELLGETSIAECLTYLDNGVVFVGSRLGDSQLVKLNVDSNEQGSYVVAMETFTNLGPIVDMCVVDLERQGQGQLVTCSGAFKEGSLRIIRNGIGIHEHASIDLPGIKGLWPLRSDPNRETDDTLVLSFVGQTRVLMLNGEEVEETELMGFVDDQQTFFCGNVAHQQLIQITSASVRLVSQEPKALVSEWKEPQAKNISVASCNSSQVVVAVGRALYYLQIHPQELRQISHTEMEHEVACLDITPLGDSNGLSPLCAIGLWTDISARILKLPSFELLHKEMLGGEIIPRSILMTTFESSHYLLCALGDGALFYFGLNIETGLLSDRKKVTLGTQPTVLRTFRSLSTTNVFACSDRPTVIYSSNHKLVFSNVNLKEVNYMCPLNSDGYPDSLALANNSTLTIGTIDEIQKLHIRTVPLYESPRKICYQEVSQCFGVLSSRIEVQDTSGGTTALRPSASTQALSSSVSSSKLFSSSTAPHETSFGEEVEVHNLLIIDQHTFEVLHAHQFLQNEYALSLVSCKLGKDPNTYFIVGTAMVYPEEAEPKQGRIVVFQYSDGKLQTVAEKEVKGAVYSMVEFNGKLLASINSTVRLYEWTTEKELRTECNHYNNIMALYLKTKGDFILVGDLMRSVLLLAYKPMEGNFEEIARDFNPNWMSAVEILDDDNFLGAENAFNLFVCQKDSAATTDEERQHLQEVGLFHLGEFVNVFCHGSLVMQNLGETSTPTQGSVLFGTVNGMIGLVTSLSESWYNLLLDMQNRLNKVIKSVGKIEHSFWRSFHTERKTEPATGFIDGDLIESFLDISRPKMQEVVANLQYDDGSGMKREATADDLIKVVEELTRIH

For the compound `O=C1CCN(N2Cc3cc(CN4CCN(c5ccc6c(c5)nc(NC(=O)c5cccc(C(F)(F)F)c5)n6[C@H]5CC[C@@H](CO)CC5)CC4)ccc3C2=O)C(=O)N1` [GT-04949, N-(5-(4-((2-(2,4-dioxotetrahydropyrimidin-1(2H)-yl)-1-oxoisoindolin-5-yl)methyl)piperazin-1-yl)-1-((1s,4s)-4-(hydroxymethyl)cyclohexyl)-1H-benzo[d]imidazol-2-yl)-3-(trifluoromethyl)benzamide], the IC50 in assay [1] fell in the range of 500 to 1000 nM; in assay [2], 500 to 1000 nM; in the assay with JEKO-1, 100 to 300 nM; in assay [3], 100 to 300 nM; in assay [4], 100 to 300 nM.
On to `CCCc1cc(C)[nH]c(=O)c1CNC(=O)c1cc(-c2ccc(N3CCC(N(C)Cc4ccc5c(c4)C(=O)N(N4CCC(=O)NC4=O)C5=O)CC3)nc2)cc2c1cnn2C(C)C` [GT-08421, 6-(6-(4-(((2-(2,4-dioxotetrahydropyrimidin-1(2H)-yl)-1,3-dioxoisoindolin-5-yl)methyl)(methyl)amino)piperidin-1-yl)pyridin-3-yl)-1-isopropyl-N-((6-methyl-2-oxo-4-propyl-1,2-dihydropyridin-3-yl)methyl)-1H-indazole-4-carboxamide], for which, in assay [5], the inhibition at 0.01 µM was in the range of 15 to 20% and the inhibition at 0.5 µM lay within 20 to 30%. Also, the “Degradation of substrate protein EZH2 (substrate protein remaining %)” value (from here on “Degradation … (substrate protein remaining %)”) at EZH2 is listed as “A (0%≤substrate protein remaining %≤80%)”. In addition, in assay [6], the inhibition at 0.01 µM lay in the range of 20 to 30% and the inhibition at 0.5 µM is 20 to 30%.
Consider `CCCc1cc(C)[nH]c(=O)c1CNC(=O)c1cc(-c2ccc(N3CCN(C4CCN(Cc5ccc6c(c5)CN(N5CCC(=O)NC5=O)C6=O)CC4)CC3)nc2)cc2c1cnn2C(C)C` [GT-08422, 6-(6-(4-(1-((2-(2,4-dioxotetrahydropyrimidin-1(2H)-yl)-1-oxoisoindolin-5-yl)methyl)piperidin-4-yl)piperazin-1-yl)pyridin-3-yl)-1-isopropyl-N-((6-methyl-2-oxo-4-propyl-1,2-dihydropyridin-3-yl)methyl)-1H-indazole-4-carboxamide], for which the “Degradation … (substrate protein remaining %)” value at EZH2 was “A (0%≤substrate protein remaining %≤80%)”. Also, in assay [6], the inhibition at 0.01 µM lay within 5 to 10% and the inhibition at 0.5 µM fell in the range of 20 to 30%.
Turning to `CCCc1cc(C)[nH]c(=O)c1CNC(=O)c1cc(-c2ccc(N3CCN(C4CCN(Cc5ccc6c(c5)C(=O)N(N5CCC(=O)NC5=O)C6=O)CC4)CC3)nc2)cc2c1cnn2C(C)C` [GT-08423, 6-(6-(4-(1-((2-(2,4-dioxotetrahydropyrimidin-1(2H)-yl)-1,3-dioxoisoindolin-5-yl)methyl)piperidin-4-yl)piperazin-1-yl)pyridin-3-yl)-1-isopropyl-N-((6-methyl-2-oxo-4-propyl-1,2-dihydropyridin-3-yl)methyl)-1H-indazole-4-carboxamide], the inhibition at 0.01 µM in assay [5] and in assay [6] was 20 to 30% each time. In addition, the inhibition at 0.5 µM in assay [5] lay within 30 to 40%; in assay [6] it was 40 to 50%. The “Degradation … (substrate protein remaining %)” value on EZH2 is reported as “A (0%≤substrate protein remaining %≤80%)”.
Consider `CCN(c1cc(-c2ccc(N3CCN(Cc4ccc5c(c4)CN(N4CCC(=O)NC4=O)C5=O)CC3)cc2)cc(C(=O)NCc2c(C)cc(C)[nH]c2=O)c1C)C1CCOCC1` [GT-08510, N-((4,6-dimethyl-2-oxo-1,2-dihydropyridin-3-yl)methyl)-4′-(4-((2-(2,4-dioxotetrahydropyrimidin-1(2H)-yl)-1-oxoisoindolin-5-yl)methyl)piperazin-1-yl)-5-(ethyl(tetrahydro-2H-pyran-4-yl)amino)-4-methyl-[1,1′-biphenyl]-3-carboxamide], for which, at EZH2, the “Degradation … (substrate protein remaining %)” value was “A (0%≤substrate protein remaining %≤80%)”. In assay [6], the inhibition at 0.01 µM fell in the range of 15 to 20% and the inhibition at 0.5 µM fell in the range of 20 to 30%.
Taken in the same sequence, the figures for `CCN(c1cc(-c2ccc(N3CCN(C4CCN(CC5CCN(c6ccc7c(c6)C(=O)N(N6CCC(=O)NC6=O)C7=O)CC5)CC4)CC3)cc2)cc(C(=O)NCc2c(C)cc(C)[nH]c2=O)c1C)C1CCOCC1` [GT-08524, N-((4,6-dimethyl-2-oxo-1,2-dihydropyridin-3-yl)methyl)-4′-(4-(1-((1-(2-(2,4-dioxotetrahydropyrimidin-1(2H)-yl)-1,3-dioxoisoindolin-5-yl)piperidin-4-yl)methyl)piperidin-4-yl)piperazin-1-yl)-5-(ethyl(tetrahydro-2H-pyran-4-yl)amino)-4-methyl-[1,1′-biphenyl]-3-carboxamide] were “A (0%≤substrate protein remaining %≤80%)”, 15 to 20% and 20 to 30%.
